Reference: US11000505B2 (priority 2010, dated 2021)
Converted amounts (≈) assume the structure as drawn.

Key:
[1] = Physical and chemical properties: pKa; settings: Non-ionizable
[2] = system: middle cerebral artery occlusion (MCAO); settings: mouse, in vivo
basilar artery = assay: Subarachnoid hemorrhage model (Example 8); assay type: in vivo
[3] = Solubility in other solvents; settings: thermodynamic from solid
pial artery [4] = assay type: in vivo, newborn pigs
ERK/MAPK = assay: CSF pERK/ERK after pretreatment by ELISA (Example 3); assay type: in vivo, piglets; settings: 30 minutes after pretreatment
pial artery [5] = settings: pig, in vivo
ERK = assay: CSF ERK activity (pERK/ERK) after HI by ELISA (Example 2); assay type: in vivo, newborn pigs; settings: 60 min after HI; 10 μg/kg i.v. at 0 or 30 min after HI
Description: Newborn pigs (1-5 days old, 1.2-1.5 kg) of both sexes were used in this study. The animal experimental protocol was approved by the Institutional Animal Care and Use Committee of the University of Pennsylvania. As described previously, Isoflurane (1 to 2 minimum alveolar concentration) was initially used for anesthesia induction, followed by α-chloralose (30-50 mg/kg supplemented with 5 mg/kg/hr intravenously) for maintenance of anesthesia. After tracheotomy, the animals were initially ventilated with room air and kept warm with heating pad to maintain the rectal temperature at 37-39° C. Bilateral femoral arteries were catheterized to monitor the blood pressure, blood gas tensions and pH. The femoral vein was catheterized for medication administration. A closed cranial window, consisting of a steel ring with a glass cover slip, connecting to 3 ports, was placed for direct pial artery visualization and diameter measurement. Small pial arteries (120 to 160 μm) and arterioles (50 to 70 μm) were identified under a microscope, visualized on a monitor connected to the microscope, and measured via a video microscaler (model VPA 550, For-A-Corp., Los Angeles, Calif.). […]
ERK activity were then determined from frozen CSF samples described above. The levels of pERK and ERK were measured by ELISA kits (Enzo Life Sciences International, Inc., Plymouth Meeting, Pa.).

cGMP = cGMP in CSF by ELISA (Example 1); assay type: in vivo, newborn pigs
pial artery [6] = assay type: in vivo, piglets
[7] = Solubility in cyclodextrin solutions (HPLC)
[8] = 10 μg/kg i.v. co-administrated with nor-BIN 1 μM topical
[9] = 10 μg/kg i.v. immediately or 30 min after HI, 60 min after HI
[10] = SB203580 10 μM topical 30 min before salvinorin A
[11] = SP600125 1 μM topical 30 min before salvinorin A
[12] = U0126 1 mg/kg i.v. 30 min before salvinorin A
[13] = pretreatment 10 μg/kg i.v. 30 min before H/I

Structure (SMILES): COC(=O)[C@@H]1C[C@H](OC(C)=O)C(=O)[C@H]2[C@@]1(C)CC[C@H]1C(=O)O[C@H](c3ccoc3)C[C@]21C [Salvinorin A]
- pKa [1]: None
- blood brain barrier disruption and vascular leakage (Evans blue extravasation) [2]: reduced the disruption and leakage
- infarct size (TTC stains) [2]: dose-dependent reduction
- motor function, grip strength score [2]: dose-dependent improvements in motor function
- neurobehavior [2]: dose-dependent improvements
- overall motor function [2]: improves overall motor function
- protective effect on leakage with norbinaltorphimine [2]: inhibited the protective effect of salvinorin A
- neurological score (basilar artery; 24 hour after SAH): no significant effect on the neurological score
- diameter of the basilar artery (basilar artery; 24 hours after SAH, H&E): increased the diameter
- thickness of the wall of the basilar artery (basilar artery; 24 hours after SAH, H&E): decreased the thickness of the wall
- solubility ([3]; 1,2-propanediol, organic solvent or mixture): 59 µg/mL (≈ 136 µM)
- solubility ([3]; 1.25% Polysorbate 80 and […] Solutol HS15, aqueous with cosolvent or surfactant or cyclodextrin): 25 µg/mL (≈ 57.8 µM)
- solubility ([3]; 2-propanol, organic solvent or mixture): 22 µg/mL (≈ 50.9 µM)
- solubility ([3]; 5% Solutol HS15, aqueous with cosolvent or surfactant or cyclodextrin): 26 µg/mL (≈ 60.1 µM)
- solubility ([3]; 5% Vitamin E TPGS, aqueous with cosolvent or surfactant or cyclodextrin): 45 µg/mL (≈ 104 µM)
- solubility ([3]; 10% Tetraglycol, aqueous with cosolvent or surfactant or cyclodextrin): < 2 µg/mL
- solubility ([3]; 10% bile salts, aqueous with cosolvent or surfactant or cyclodextrin): < 2 µg/mL
- solubility ([3]; DMSO, organic solvent or mixture): > 1000 µg/mL
- solubility ([3]; N,N-dimethylacetamide, organic solvent or mixture): > 5000 µg/mL
- solubility ([3]; N-methylpyrolidinone, organic solvent or mixture): > 10000 µg/mL
- solubility ([3]; […] Polysorbate 80, aqueous with cosolvent or surfactant or cyclodextrin): < 2 µg/mL
- solubility ([3]; ethanol, organic solvent or mixture): > 1000 µg/mL
- solubility ([3]; glyceryl monocaprylate, oil or lipid): < 2 µg/mL
- solubility ([3]; water): < 2 µg/mL
- pial artery dilation response to hypercapnia after HI with nor-BIN (pial artery [4]; [8]): abolished completely
- pial artery dilation response to hypotension after HI with nor-BIN (pial artery [4]; [8]): abolished
- pial artery dilation response to hypercapnia after HI (pial artery [4]; [9]): preserved the dilation responses of pial artery to hypercapnia
- pial artery dilation response to hypotension after HI (pial artery [4]; [9]): preserved the dilation responses of pial artery to hypotension
- ratio of pERK/ERK in CSF (ERK/MAPK): increased significantly
- ratio of pERK/ERK in CSF with U0126 (ERK/MAPK; U0126 30 minutes before salvinorin): unchanged
- blood pressure changes during administration (pial artery [5]): No significant blood pressure changes
- dilation of constricted pial arteries (pial artery [5]): dilated pial arteries under elevated tone conditions
- dilation of pial artery (pial artery [5]): dose dependently (10 nM, 1 μM) dilated the pial artery
- dilation response in presence of L-NNA (pial artery [5]): abolished by L-NNA
- dilation response in presence of glibenclamide (pial artery [5]): blocked the dilation effects of salvinorin A
- dilation response in presence of naloxone (pial artery [5]): blocked the dilation effects
- dilation response in presence of norbinaltorphimine (pial artery [5]): blocked the dilation effects
- dilation response in presence of sulpiride (pial artery [5]): had no effect on the dilation response
- dilation with repeated administration (pial artery [5]): sustained dilation effects was observed
- CSF ERK activity (pERK/ERK) (ERK): reduced to the baseline level
- cGMP in CSF (cGMP; 10 min after administration): elevated cGMP in CSF
- cGMP in CSF in presence of L-NNA (cGMP; L-NNA pretreatment): L-NNA blocked the elevation of the cGMP
- cGMP in CSF in presence of norbinaltorphimine (cGMP; norbinaltorphimine pretreatment, 10 nM and 1 μM): Norbinaltorphimine blocked the elevation of cGMP
- preserved response to hypercapnia with SB203580 (pial artery [6]; [10]): No significant change in the preservative effects
- preserved response to hypotension with SB203580 (pial artery [6]; [10]): no significantly changes
- preserved response to hypercapnia with SP600125 (pial artery [6]; [11]): No significant change in the preservative effects
- preserved response to hypotension with SP600125 (pial artery [6]; [11]): no significantly changes
- preserved response to hypercapnia with U0126 (pial artery [6]; [12]): abolished by U0126
- preserved response to hypotension with U0126 (pial artery [6]; [12]): abolished by U0126
- pial artery dilation response to hypercapnia after hypoxia/ischemia (pial artery [6]; [13]): preserved the dilation response of pial artery to hypercapnia
- pial artery dilation response to hypotension after hypoxia/ischemia (pial artery [6]; [13]): preserved the dilation response of pial artery to hypotension
- solubility ([7]; 20% 2-hydroxypropyl-β-cyclodextrin (HPBCD) in water, aqueous with cosolvent or surfactant or cyclodextrin, thermodynamic from solid, Concentration (solubility), 20% HPBCD, mean ± SD): 122.5 ± 0.6 µg/mL (≈ 283 µM)
- solubility ([7]; 20% 2-hydroxypropyl-β-cyclodextrin (HPBCD) in water, aqueous with cosolvent or surfactant or cyclodextrin, thermodynamic from solid, maximum concentration (solubility), HPBCD): > 100 µg/mL
- solubility ([7]; 20% 2-hydroxypropyl-β-cyclodextrin (HPBCD) in water, aqueous with cosolvent or surfactant or cyclodextrin, thermodynamic from solid, solubility, 20% HPBCD): 122.5 ± 0.6 µg/mL (≈ 283 µM)
- solubility ([7]; 20% 2-hydroxypropyl-γ-cyclodextrin (HPGCD) in water, aqueous with cosolvent or surfactant or cyclodextrin, thermodynamic from solid, Concentration (solubility), 20% HPGCD, mean ± SD): 52.6 ± 0.9 µg/mL (≈ 122 µM)
- solubility ([7]; 20% 2-hydroxypropyl-γ-cyclodextrin (HPGCD) in water, aqueous with cosolvent or surfactant or cyclodextrin, thermodynamic from solid, solubility, 20% HPGCD): 52.6 ± 0.9 µg/mL (≈ 122 µM)
- solubility ([7]; 20% α-cyclodextrin sulfated sodium salt in water, aqueous with cosolvent or surfactant or cyclodextrin, thermodynamic from solid, Concentration (solubility), 20% α-Cyclodextrin sulfated sodium salt, mean ± SD): 1 ± 0.1 µg/mL
- solubility ([7]; 20% β-cyclodextrin sulfated sodium salt in water, aqueous with cosolvent or surfactant or cyclodextrin, thermodynamic from solid, Concentration (solubility), 20% β-Cyclodextrin sulfated sodium salt, mean ± SD): 1.5 ± 0.1 µg/mL
- solubility ([7]; water and α- or β-cyclodextrin sulfated sodium salt): only minimally soluble
- solubility ([7]; water, thermodynamic from solid, Concentration (solubility), 100% water, mean ± SD): 1 ± 0.1 µg/mL (≈ 2.31 µM)
